# Test results: patent US7829665B2 (priority 2005, dated 2010)
# Target: T1, full-length NS3/NS4A-2 (HCV NS3 protease) (Hepatitis C virus genotype 1a, UniProt P27958)
# T1 construct: Recombinant E. coli or Baculovirus full-length NS3 was diluted to 3.33 μM with assay buffer; made in house; host or cells: E. coli or baculovirus (BV) expression system
# Assay: NS3-NS4 protease assay / NS3 inhibition assay (RETS1 substrate, fluorescence kinetic read)
# Assay type: biochemical
# Conditions: Table 22; read-out: NS3-NS4 IC50
# How it was run: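 Ki values come from IC50 fits corrected via Ki=IC50/(1+[S]/Km), with Km 2.03 μM for E. coli and 1.74 μM for baculovirus full-length NS3. Enzyme (2 or 3 nM NS3, respectively, complexed with NS4A-2) sat with compound, top concentration 50 microM, for 10 min at room temperature. Cleavage of RETS1 (8 μM working solution) was then followed by fluorescence (335/495 nm) over 30 min.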
# T1 sequence (P27958 1027-1657): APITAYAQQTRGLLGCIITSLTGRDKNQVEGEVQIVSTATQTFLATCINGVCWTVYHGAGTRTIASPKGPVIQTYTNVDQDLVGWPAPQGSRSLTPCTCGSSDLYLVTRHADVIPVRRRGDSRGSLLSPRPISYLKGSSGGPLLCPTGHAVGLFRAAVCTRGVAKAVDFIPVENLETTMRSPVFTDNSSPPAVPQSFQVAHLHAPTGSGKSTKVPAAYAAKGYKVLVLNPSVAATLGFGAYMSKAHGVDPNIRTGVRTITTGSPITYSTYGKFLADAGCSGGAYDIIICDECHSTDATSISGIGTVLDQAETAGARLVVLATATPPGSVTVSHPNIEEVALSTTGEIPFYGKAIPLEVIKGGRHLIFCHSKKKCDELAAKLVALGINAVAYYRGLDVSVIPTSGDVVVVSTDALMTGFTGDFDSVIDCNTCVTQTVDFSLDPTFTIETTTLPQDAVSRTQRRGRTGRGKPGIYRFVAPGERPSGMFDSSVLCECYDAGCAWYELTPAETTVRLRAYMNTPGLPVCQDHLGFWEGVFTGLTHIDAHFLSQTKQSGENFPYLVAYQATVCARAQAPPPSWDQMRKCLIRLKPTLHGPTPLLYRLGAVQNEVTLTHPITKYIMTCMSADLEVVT
row,SMILES,IC50 [µM]
1,CC(C)(C)OC(=O)N[C@H]1CCCCC/C=C\[C@@H]2C[C@@]2(C(=O)NC2CC2)NC(=O)[C@@H]2CCCN2C1=O [Compound 2318],< 1

# Same assay, conditions: Table 25; read-out: NS3-NS4 IC50
row,SMILES,IC50 [µM]
1,"CC(C)(C)OC(=O)N[C@H]1CCCCC/C=C\[C@@H]2C[C@@]2(C(=O)N[S@@+]([O-])C(C)(C)C)NC(=O)[C@@H]2C[C@@H](OC(=O)N3Cc4ccccc4C3)CN2C1=O [Compound 2601, (1S,4R,6S,14S,18R)-1,3-Dihydro-isoindole-2-carbonyloxylic acid 14-tert-butoxycarbonylamino-4-((S)-2-methylpropane-2-sulfinyl)aminocarbonyl-2,15-dioxo-3,16-diaza-tricyclo[14.3.0.0^4,6]nonadec-7-ene-18-yl ester]",> 10

# Same assay, conditions: recombinant E. coli or Baculovirus full-length NS3 with NS4A-2; read-out: NS3-NS4 IC50
row,SMILES,IC50 [µM]
1,CC(C)(C)OC(=O)N[C@H]1CCCCC/C=C\[C@@H]2C[C@@]2(C(=O)NS(=O)(=O)NC2(C#N)CC2)NC(=O)[C@@H]2CCCN2C1=O [Compound 2212],< 1
2,CC(C)(C)OC(=O)N[C@H]1CCCCC/C=C\[C@@H]2C[C@@]2(C(=O)NS(=O)(=O)NCc2ccccc2)NC(=O)[C@@H]2CCCN2C1=O [Compound 2232],< 10
3,CC(C)(C)OC(=O)N[C@H]1CCCCC/C=C\[C@@H]2C[C@@]2(C(=O)NS(=O)(=O)NCCc2ccc3ccccc3c2)NC(=O)[C@@H]2CCCN2C1=O [Compound 421],> 10
4,CC(C)(C)OC(=O)N[C@H]1CCCCC/C=C\[C@@H]2C[C@@]2(C(=O)NS(=O)(=O)N2CCC2)NC(=O)[C@@H]2CCCN2C1=O [Compound 2206],< 10
5,CN(C)S(=O)(=O)NC(=O)[C@@]12C[C@H]1/C=C\CCCCC[C@H](NC(=O)OC(C)(C)C)C(=O)N1CCC[C@H]1C(=O)N2 [Compound 2202],< 10
6,CC(C)C(C(C)C)S(=O)(=O)NC(=O)[C@@]12C[C@H]1/C=C\CCCCC[C@H](NC(=O)OC(C)(C)C)C(=O)N1CCC[C@H]1C(=O)N2 [Compound 2209],< 1
7,CNS(=O)(=O)NC(=O)[C@@]12C[C@H]1/C=C\CCCCC[C@H](NC(=O)OC(C)(C)C)C(=O)N1CCC[C@H]1C(=O)N2 [Compound 2213],< 10
8,CC(C)(C)OC(=O)N[C@H]1CCCCC/C=C\[C@@H]2C[C@@]2(C(=O)NS(=O)(=O)Nc2ccc(F)cc2)NC(=O)[C@@H]2CCCN2C1=O [Compound 2237],< 1
9,CCOc1ccc2sc(S(=O)(=O)NC(=O)[C@@]34C[C@H]3/C=C\CCCCC[C@H](NC(=O)OC(C)(C)C)C(=O)N3CCC[C@H]3C(=O)N4)nc2c1 [Compound 306],> 10
10,CC(C)COC(=O)N[C@H]1CCCCC/C=C\[C@@H]2C[C@@]2(C(=O)NS(=O)(=O)Nc2ccc(Cl)cc2)NC(=O)[C@@H]2CCCN2C1=O [Compound 419],< 10
11,CN(c1ccc(Cl)cc1)S(=O)(=O)NC(=O)[C@@]12C[C@H]1/C=C\CCCCC[C@H](NC(=O)OC(C)(C)C)C(=O)N1CCC[C@H]1C(=O)N2 [Compound 2226],< 10
12,CC(C)(C)OC(=O)NC1CCCCCCCC=CC2CC2(C(=O)NS(=O)(=O)c2cc(Cl)cc(Cl)c2)NC(=O)C2CCCN2C1=O (stereo not shown) [Compound 2108],< 10
13,O=C1N[C@]2(C(=O)NS(=O)(=O)C3CC3)C[C@H]2/C=C\CCCCC[C@H](Nc2c(N3C4CCC3CC4)c(=O)c2=O)C(=O)N2C[C@H](OC(=O)N3Cc4cccc(F)c4C3)C[C@@H]12 [Compound 199],< 0.1
14,CC(C)(C)OC(=O)N[C@H]1CCCCC/C=C\[C@@H]2C[C@@]2(C(=O)NS(=O)(=O)c2cccc(C(F)(F)F)c2)NC(=O)[C@@H]2CCCN2C1=O [Compound 2149],< 10
15,Cc1noc(C)c1S(=O)(=O)NC(=O)[C@@]12C[C@H]1/C=C\CCCCC[C@H](NC(=O)OC1CCCC1)C(=O)N1C[C@H](OC(=O)N3CCc4ccccc4C3)C[C@H]1C(=O)N2 [Compound 187],< 0.1
16,CC(C)(C)OC(=O)N[C@H]1CCCCC/C=C\[C@@H]2C[C@@]2(C(=O)NS(=O)(=O)N2CCc3ccccc3C2)NC(=O)[C@@H]2CCCN2C1=O [Compound 408],< 10
17,CC(C)(C)OC(=O)NC1CCCCCCCC=CC2CC2(C(=O)NS(=O)(=O)C(F)(F)F)NC(=O)C2CCCN2C1=O (stereo not shown) [Compound 2107],< 1
